“Also recorded” adds a separate entry of the source. Read-outs that look alike come from different tables or passages of the source.
Assays:
[1] = tested on: HER2-positive tumour cell line, SK-BR-3; assay: In vitro potency / cell viability assay (CellTiter-Glo) in SK-BR-3 cell line; format: cell-based
Text: (§1) Loss of tumour cell viability following treatment with cytotoxic drugs or ADCs in vitro can be measured by growing cell lines in the presence of increasing concentrations of drugs or ADCs and quantifying the loss of proliferation or metabolic activity using CellTiter-Glo® Luminescence reagent (Promega). The protocol describes cell seeding, drug treatment and determination of the cell viability in reference to untreated cells based on ATP synthesis, which is directly related to the number of cells present in the well.
HER2-positive tumour cell line, SK-BR-3 (ATCC-HTB-30), was grown in McCoy's 5A medium complemented with 10% foetal bovine serum, 100 u/mL Penicillin and 100 μg/mL Streptomycin. SK-BR-3 cells were detached, seeded at 5,000 cells per well (100 μL/well) into poly-D-lysine coated clear bottom white-walled 96-well plates and incubated for 24 h at 37° C. and 5% CO2.
Serial dilutions of compounds were prepared in triplicate using the relevant cell culture medium as diluent. The CD30-positive Karpas-299 cells were treated with 50 μL compounds at 2× assay concentration. Medium from the SK-BR-3 assay plates was removed and replaced by 100 μL serially diluted compounds at 1× assay concentration. The assay concentrations are specified in Table 1. The cells were then incubated with the compounds (total volume 100 μL/well), at 37° C. and 5% CO2 for a further 96 h.
(§2) At the end of the incubation, cell viability was measured using the CellTiter-Glo® Luminescence reagent, as described by the manufacturer's instructions. The data was subsequently analysed using a four parameter non-linear regression model.
(§3) Viability was expressed as % of untreated cells and calculated using the following formula: […]
The % viability (Y-axis) was plotted against the logarithm of drug concentration in nM (X-axis) to extrapolate the IC50 values for all compounds.

[2] = tested on: CD30-positive human T cell lymphoma cell line Karpas-299; assay: In vitro potency / cell viability assay (CellTiter-Glo) in Karpas-299 cell line; format: cell-based; conditions: 96 h incubation
Text: as §1
The CD30-positive human T cell lymphoma cell line Karpas-299 was obtained from Dr Abraham Karpas at the University of Cambridge. The cells were grown in RPMI medium supplemented with 10% foetal bovine serum, 100 U/mL Penicillin and 100 μg/mL Streptomycin. […]
as §2, §3
Loss of tumour cell viability following treatment with ADCs incorporating maytansinoids of the invention was tested by growing cell lines in the presence of increasing concentrations of ADCs and quantifying the loss of proliferation or metabolic activity as described in Example 2. […]

[3] = Stability of atropisomers on heating in DMSO (HPLC); format: physicochemical; conditions: 50° C., 1 h
Protocol: The stability of the atropisomers was investigated by heating solutions of compounds 80 and 81 in DMSO at 50° C. for 1 h.

[4] = Stability in mouse serum (LC-Orbitrap-MS); format: in vitro ADME; conditions: 37° C., 4 and 7 days, 90% (v/v) mouse serum, 0.05 mg/mL
Protocol: Solutions of compounds 26 and 78 (comparator) in a 50/50 v/v mixture of DMF:buffer solution (20 mM sodium phosphate, 150 mM sodium chloride, 20 mM EDTA, pH 7.5) (0.5 mg/mL) were diluted to 0.05 mg/mL in mouse serum (90% (v/v) serum content). An aliquot of each sample corresponding to the ‘0’ time point was immediately frozen at −80° C., while the remaining sample was incubated at 37° C. for 7 d. Additional aliquots were taken after 4 and 7 d and frozen at −80° C. Prior to analysis, the samples were removed from the freezer and maytansinoid-related species were extracted from the serum by protein precipitation. Protein precipitation was performed by adding acetonitrile (75% v/v) to each time-point aliquot, and after gentle mixing, allowing the mixtures to stand at 4° C. for 2 h. The precipitated protein was then separated by centrifugation (1400×g, 30 min, 4° C.) and the supernatant containing the extracted maytansinoid-related species were analysed by LC-Orbitrap-MS.
The samples were further diluted with water resulting in a 15% v/v acetonitrile solution. An aliquot (2.5 μL) of each solution was then injected onto a nano-liquid chromatography MS system, consisting of a Dionex ULTIMATE 3000 UPLC fitted with a PepMap C18 column (0.075×150 mm), coupled online to an Orbitrap-MS instrument operated in ES positive mode at 75K resolution using lock mass. […]

[5] = Homo sapiens, SK-BR-3, free compounds, as described in Example 2, read-out: Average IC50 (nM) SK-BR-3 Cell line
[6] = Homo sapiens, SK-BR-3, 96 h, 96 h incubation, CellTiter-Glo, read-out: IC50 (nM) SKBR3 Cell line
[7] = free compounds, as described in Example 2, read-out: Average IC50 (nM) SK-BR-3 Cell line

## COc1cc2cc(c1-c1ccc(NC(=O)CCCS)cc1)N(C)C(=O)C[C@H](OC(=O)C(C)C)[C@]1(C)O[C@H]1[C@H](C)[C@@H]1C[C@@](O)(NC(=O)O1)[C@H](OC)/C=C/C=C(\C)C2 [Compound 12]
[1]; [5]
  IC50: 4.2 nM

## COc1cc2cc(c1-c1ccc(N)cc1)N(C)C(=O)C[C@H](OC(=O)[C@H](C)N(C)C(C)=O)[C@]1(C)O[C@H]1[C@H](C)[C@@H]1C[C@@](O)(NC(=O)O1)[C@H](OC)/C=C/C=C(\C)C2 [Compound 32]
[1]; [5]
  IC50: 5.5 nM

## COc1cc2cc(c1-c1ccc(NC(=O)CCS)cc1)N(C)C(=O)C[C@H](OC(=O)C(C)C)[C@]1(C)O[C@H]1[C@H](C)[C@@H]1C[C@@](O)(NC(=O)O1)[C@H](OC)/C=C/C=C(\C)C2 [Compound 15]
[1]; [5]
  IC50: 5.4 nM

## COc1cc2cc(c1-c1ccc(NC(=O)OC(C)(C)C)cc1)N(C)C(=O)C[C@H](OC(=O)C(C)C)[C@]1(C)O[C@H]1[C@H](C)[C@@H]1C[C@@](O)(NC(=O)O1)[C@H](OC)/C=C/C=C(\C)C2 [Compound 3, 4-(N-Bocamino)phenyl-AP3]
[2]
  IC50: 0.7 nM
[1]; [6]
  IC50: 4 nM

## COc1cc2cc(c1/C=C/CN)N(C)C(=O)C[C@H](OC(=O)C(C)C)[C@]1(C)O[C@H]1[C@H](C)[C@@H]1C[C@@](O)(NC(=O)O1)[C@H](OC)/C=C/C=C(\C)C2 [Compound 31, reference compound]
[1]; [5]
  IC50: 33.4 nM

## COc1cc2cc(c1Cl)N(C)C(=O)C[C@H](OC(=O)[C@H](C)N(C)C(=O)CCS)[C@]1(C)O[C@H]1[C@H](C)C1C[C@@](O)(NC(=O)O1)[C@H](OC)/C=C/C=C(\C)C2 [DM1, reference compound]
[2]
  IC50: 9 nM
[1]; [6]
  IC50: 10 nM

## COc1cc2cc(c1-c1ccc(NC(=O)CCC(C)(C)S)cc1)N(C)C(=O)C[C@H](OC(=O)C(C)C)[C@]1(C)O[C@H]1[C@H](C)[C@@H]1C[C@@](O)(NC(=O)O1)[C@H](OC)/C=C/C=C(\C)C2 [Compound 9]
[1]; [5]
  IC50: 7.4 nM

## COc1cc2cc(c1-c1ccc(N)cc1Cl)N(C)C(=O)C[C@H](OC(=O)C(C)C)[C@]1(C)O[C@H]1[C@H](C)[C@@H]1C[C@@](O)(NC(=O)O1)[C@H](OC)/C=C/C=C(\C)C2 (single isomer, unassigned) [Compound 81]
[3]
  stability of atropisomers (HPLC chromatograms): no changes were observed
[1]; [7]
  IC50: 0.9 nM

## COc1cc2cc(c1-c1ccc(NC(=O)CCC(C)S)cc1)N(C)C(=O)C[C@H](OC(=O)C(C)C)[C@]1(C)O[C@H]1[C@H](C)[C@@H]1C[C@@](O)(NC(=O)O1)[C@H](OC)/C=C/C=C(\C)C2 (stereo partly drawn) [Compound 6]
[1]; [5]
  IC50: 2.7 nM

## COc1cc2cc(c1-c1ccc(N)cc1Cl)N(C)C(=O)C[C@H](OC(=O)C(C)C)[C@]1(C)O[C@H]1[C@H](C)[C@@H]1C[C@@](O)(NC(=O)O1)[C@H](OC)/C=C/C=C(\C)C2 (single isomer, unassigned) [Compound 80]
[3]
  stability of atropisomers (HPLC chromatograms): no changes were observed
[1]; [7]
  IC50: 3.6 nM

## COc1cc2cc(c1-c1ccc(N)cc1)N(C)C(=O)C[C@H](OC(=O)C(C)C)[C@]1(C)O[C@H]1[C@H](C)[C@@H]1C[C@@](O)(NC(=O)O1)[C@H](OC)/C=C/C=C(\C)C2 [Compound 4]
[1]; [5]
  IC50: 1.2 nM

## COc1cc2cc(c1-c1ccc(NC(=O)CCC(C)(C)S)c(Cl)c1)N(C)C(=O)C[C@H](OC(=O)C(C)C)[C@]1(C)O[C@H]1[C@H](C)[C@@H]1C[C@@](O)(NC(=O)O1)[C@H](OC)/C=C/C=C(\C)C2 [Compound 21]
[1]; [5]
  IC50: 1.7 nM

## COc1cc2cc(c1-c1ccc(NC(=O)CCS)c(Cl)c1)N(C)C(=O)C[C@H](OC(=O)C(C)C)[C@]1(C)O[C@H]1[C@H](C)[C@@H]1C[C@@](O)(NC(=O)O1)[C@H](OC)/C=C/C=C(\C)C2 [Compound 23]
[1]; [5]
  IC50: 4.2 nM

## COc1cc2cc(c1Cl)N(C)C(=O)C[C@H](OC(=O)[C@H](C)N(C)C(=O)CCC(C)SSC(C)CCC(=O)O)[C@]1(C)O[C@H]1[C@H](C)[C@@H]1C[C@@](O)(NC(=O)O1)[C@H](OC)/C=C/C=C(\C)C2 (stereo partly drawn) [Compound 78, reference compound]
[4]
  degradation in mouse serum: significant degradation

## COc1cc2cc(c1-c1ccc(N)c(Cl)c1)N(C)C(=O)C[C@H](OC(=O)C(C)C)[C@]1(C)O[C@H]1[C@H](C)[C@@H]1C[C@@](O)(NC(=O)O1)[C@H](OC)/C=C/C=C(\C)C2 [Compound 5]
[1]; [5]
  IC50: 1.2 nM

## COc1cc2cc(c1-c1ccc(NC(=O)CCC(C)S)c(Cl)c1)N(C)C(=O)C[C@H](OC(=O)C(C)C)[C@]1(C)O[C@H]1[C@H](C)[C@@H]1C[C@@](O)(NC(=O)O1)[C@H](OC)/C=C/C=C(\C)C2 (stereo partly drawn) [Compound 18]
[1]; [5]
  IC50: 0.9 nM

## COc1cc2cc(c1-c1ccc(NC(=O)CCC(C)SSC(C)CCC(=O)O)cc1)N(C)C(=O)C[C@H](OC(=O)C(C)C)[C@]1(C)O[C@H]1[C@H](C)[C@@H]1C[C@@](O)(NC(=O)O1)[C@H](OC)/C=C/C=C(\C)C2 (stereo partly drawn) [Compound 26]
[4]
  degradation in mouse serum: no comparable degradation products were observed; also recorded: no degradation products equivalent to A and B
